# Measurements from US5451686A, “3 and 5 alkyl and phenyl 4-(hydroxy or acyloxy)-alkyl substituted 2(5H)-furanones as anti-inflammatory agents” (Allergan, Inc., priority 1994, dated 1995).
# Read-outs that look alike come from different tables or passages of the source.
# What was measured:
# [1] = target: bee venom phospholipase A2 (Apis mellifera, UniProt P00630); type: biochemical
# [2] = tested on: Calcium^2+ channel; assay: Calcium Channel (mobilization) Inhibition Assay (Fura-2 fluorescence); type: cell-based
# Description: Calcium Channel (mobilization) Inhibition Assay
# Polymorphonuclear leukocytes (PMNa), gastric glands, GH3 cells, A431 cells, spleen cells, human keratinocytes corneal cells, etc. were loaded with the Ca^2+ sensitive fluorescent dye, Fura-2. The appropriate cell type was chosen and the potency and efficacy of the anti-inflammatory furanones on calcium mobilization, calcium channel inhibition was quantitated. The methods used for A431 cells listed below are representative of those used for other cells.
# A431 cells were detached using a 5-10 min trypsin-EDTA treatment whereas GH3 cells were treated 2 to 5 min with a 1% pancreatin solution. Cells were immediately washed twice in a 20 mM HEPES buffer (pH 7.4) containing 120 mM NaCl, 6 mM KCl, 1 mM MgSO4, 1 mg/ml glucose and 1 mg/ml pyruvate and 1.4 mM calcium (medium A). Approximately 5×10^6 cells were suspended in medium A and incubated with 4 uM fura-2-AM for 15 min at 37° C.
# After washing the fura-2 loaded cells, the uptake of dye was checked using fluorescence microscopy and found to be evenly distributed in the cytosol of all cells. Fluorescence was continuously recorded with a Perkin-Elmer LS-5 spectrofluorometer. The excitation wavelength was set at 340 nm and emission wavelength set at 500 nm. The cell suspension was continually stirred, maintained at 37° C. and equilibrated for approximately 5 min before addition of various agents. [Ca^2+ i was calculated using the following formula: [formula]
# All fluorescence values were measured relative to a EGTA-quenched signal determined as follows: F was the relative fluorescence measurement of the sample. Fmax was determined by lysing the cells with digitonin (100 ug/ml) in DMSO. After Fmax was determined the pH was adjusted to 8, with NaOH and Ca^2+ chelated with 3 mM EGTA to totally quench the fura-2 signal and obtain Fmin.
# When quin-2- was used, cells were incubated with 10 uM quin-2- at 37° C. for 1 hour, washed and then used.
# [3] = read-out: IC50, Calcium^2+ Channel Mobilization Inhibition, KCl induced
# [4] = read-out: IC50, Calcium^2+ Channel Mobilization Inhibition, TRH induced
# bee venom phospholipase A2, sequence (P00630 34-167 limits assumed): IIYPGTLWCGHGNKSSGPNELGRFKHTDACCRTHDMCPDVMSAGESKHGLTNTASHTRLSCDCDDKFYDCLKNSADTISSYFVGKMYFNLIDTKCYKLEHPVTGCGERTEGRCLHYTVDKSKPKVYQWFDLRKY
SMILES,"IC50, Phospholipase A2 Assay [1]","IC50 [2, 3] [nM]","IC50 [2, 4] [nM]","IC50, Calcium^2+ Channel Mobilization Inhibition, TRH induced ([2]; TRH induced)"
"CCCCCCCCCCCCC(O)C1=CC(=O)OC1C (single isomer, unassigned) [Compound 3, 4-(1-Hydroxytridecyl)-5-methyl-2(5H)-furanone]",inactive at 3 μM,470,670,
"CCCCCCCCCCCCC(OC(C)=O)C1=CC(=O)OC1C (centres unmarked) [Compound 1, 4-(1-Acetoxytridecyl)-5-methyl-2(5H)-furanone]",inactive at 3 μM,360,6400,
"CCCCCCCCCCCCC(OC(C)=O)C1=C(C)C(=O)OC1 (centres unmarked) [Compound 2, 4-(1-Acetoxytridecyl)-3-methyl-2-furanone]",inactive at 3 μM,250,1000,
"CCCCCCCCCCCC(=O)OCC1=C(c2ccccc2)C(=O)OC1C (centres unmarked) [Compound 4, 4-Dodecoyloxymethyl-5-methyl-3-phenyl-2(5H)-furanone]",inactive at 3 μM,8000,,inactive
"CC1=C(CC/C(C)=C/CCC2=CCC(C3=CC(=O)OC3O)OC2O)C(C)(C)CCC1 (centres unmarked) [manoalide, reference compound]",,800,600,
